# Experimental data published in US12728121B2, “Compositions and methods for treating idiopathic pulmonary fibrosis” (Seyltx, Inc., priority 2019, dated 2026).
# Tests used:
# Assay type in all cases: in vivo, Mouse/C57BL/6
# BLM-induced fibrosis [1] = assay: Bleomycin (BLM)-induced lung fibrosis in mice: Gomori's Trichrome score of lung sections
# Description: (§1) The mouse species or strain was Mouse/C57BL/6, the mice being 8-10 week old males. Nine groups of 10 mice each were obtained from Charles River Laboratories. Each group was randomized based on body weight. Bleomycin (BLM) was obtained from Euroasias.
# (§2) The mice were anesthetized with isoflurane/O2 mixture. Bleomycin (BLM) was then administered to the mice intratracheally (PennCentury)—single bolus, at 2.5 U/kg body weight in 50 μl sterile saline.
# (§3) Seven days after the bleomycin is administered, and fibroblasts have generally proliferated, six of the nine groups of IT bleomycin challenged mice were be dosed orally (p.o.) once a day with Bromantane, Ifenoprodil, Radiprodil, Bemithyl, Dexamethasone, or Repirinast at specified amounts per kg of body weight (mg/kg) daily for 14 consecutive days. The amounts are set out in Table 1 below. The vehicle used was 0.5% carboxymethyl cellulose (CMC). Prifenidone was also prepared in 0.5% CMC and administrated orally once a day to one of the nine IT bleomycin challenged mice groups beginning for 14 consecutive days. Vehicle and no-BLM control groups received 0.5% CMC orally for 14 consecutive days.
# On day 21 of the study, 4 hours after the last dose, the mice were sacrificed and plasma was collected and frozen for cytokine analysis (testing for IL-6, IL-12, TGFβ, IL-13 proteins, or fibrosis markers). Bronchoalveolar lavage fluid (BALF) was collected and frozen for optional cytokine analyses and cell counts pending the initial data. The lungs were then excised, weighed and fixed in formalin. Gomori's Trichrome stain, a histological stain, was used to determine collagen content.
# Trichrome Score: A trichrome score measures the level of scarring to the lungs caused by the disease. The greater the trichrome score, the greater the scarring.
# Formalin fixed lung samples were submitted to affiliated histopathology laboratory for histopathological analysis subjected Gomori's Trichrome stain, a histological stain, which was used to determine collagen content.
# Each lung was divided into ten sections. All ten sections were stained and evaluated. A board certified veterinarian pathologist assessed the presence of lung fibrosis and severity score—The expression of collagen (associated with fibrosis) is determined from the ratio of the stained area versus the total area of the lung section.
# BLM-induced fibrosis [2] = assay: Bleomycin (BLM)-induced lung fibrosis in mice: mortality rate over 21 days; conditions: doses as Table 1
# Description: as §1, §2, §3
# Mortality Rate: the mortality rate in each group was also observed over 21 days.
# [3] = Bleomycin (BLM)-induced lung fibrosis in mice: body weight over 21 days; conditions: doses as Table 1; for Body Weight: group mean
# Description: as §1, §2, §3
# Body Weight: The body weights were measured over 21 days using a laboratory balance.
compound,measurement,setting,value
"Cc1ccc(=O)n(-c2ccccc2)c1 [Pirfenidone (+), 5-methyl-1-phenylpyridin-2(1H)-one]",Trichrome score (average),"BLM-induced fibrosis [1]; day 21, BLM 2.5 U/kg intratracheal, p.o. once daily 14 days from day 7, mg/kg: Pirfenidone 300, Bromantane 20, Ifenoprodil 30, Radiprodil 30, Bemithyl 200, Dexamethasone 0.25, Repirinast 90, Normal 1.00, Vehicle 4.59",4.09
same,Trichrome score response versus BLM-vehicle group (in words),"BLM-induced fibrosis [1]; doses as Table 1, order: Dexamethasone and Repirinast, followed by Ifenprodil and Radiprodil",minimal improvement
same,% reduction in fibrosis,"BLM-induced fibrosis [1]; from Trichrome scores relative to vehicle and normal groups, day 21, doses as Table 1, p.o. once daily 14 days",13.9%
same,Fatality Number,"BLM-induced fibrosis [2]; deaths/mice per group over 21 days, Vehicle 2/10",2/10
same,Percent Fatality,"BLM-induced fibrosis [2]; over 21 days, Vehicle 20%",20%
same,Percent Change in Body Weight,[3]; 7-Nov,0.0%
same,Body Weight,[3]; 7-Nov,24.0 g
same,Percent Change in Body Weight,[3]; 8-Nov,0.3%
same,Body Weight,[3]; 8-Nov,24.2 g
same,Percent Change in Body Weight,[3]; 9-Nov,−0.5%
same,Body Weight,[3]; 9-Nov,23.5 g
same,Percent Change in Body Weight,[3]; 12-Nov,−2.2%
same,Body Weight,[3]; 12-Nov,21.7 g
same,Percent Change in Body Weight,[3]; 14-Nov,−2.9%
same,Body Weight,[3]; 14-Nov,21.0 g
same,Percent Change in Body Weight,[3]; 16-Nov,−3.2%
same,Body Weight,[3]; 16-Nov,20.8 g
same,Percent Change in Body Weight,[3]; 20-Nov,−3.7%
same,Body Weight,[3]; 20-Nov,20.3 g
same,Percent Change in Body Weight,[3]; 22-Nov,−2.9%
same,Body Weight,[3]; 22-Nov,21.1 g
same,Percent Change in Body Weight,[3]; 26-Nov,−3.1%
same,Body Weight,[3]; 26-Nov,20.9 g
same,Percent Change in Body Weight,[3]; 28-Nov,−3.2%
same,Body Weight,[3]; 28-Nov,20.7 g
